Results as given in patent publication US20240336574A1 (LATIGO BIOTHERAPEUTICS, INC., priority 2021, published 2024).
Like-named read-outs stand apart in the source and are kept apart here.

Molecular target: T1, recombinant human NaV1.8 stably transfected HEK cells (Homo sapiens, UniProt Q9Y5Y9)
T1 construct: expressed in transfected cells; host or cells: HEK cells, stably transfected
Assay: Compound profiling on NaV1.8, human NaV1.8 cell line, SyncroPatch384PE automated patch clamp assay (Example 102, first set of compounds, Table 16)
Type: cell-based
Settings: human NaV1.8 HEK cells, Table 16 (first set of compounds)
Summary of the method: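 IC50s come from two read-outs: resting-state block (P1, 10 mV step from −120 mV) and inactivated-state block (P2, after 10 s at −40 mV), scaled between DMSO and 250 μM tetracaine. Compounds (20–0.001 μM final, 1:3 steps) were applied for 5 min, 15 s sweeps. Cells kept at 30 °C the day before.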

[1] = inactivated state block (P2 measurement), read-out: P2IC50
[2] = resting state block (P1 measurement), read-out: P1IC50

T1 sequence (Q9Y5Y9 whole entry): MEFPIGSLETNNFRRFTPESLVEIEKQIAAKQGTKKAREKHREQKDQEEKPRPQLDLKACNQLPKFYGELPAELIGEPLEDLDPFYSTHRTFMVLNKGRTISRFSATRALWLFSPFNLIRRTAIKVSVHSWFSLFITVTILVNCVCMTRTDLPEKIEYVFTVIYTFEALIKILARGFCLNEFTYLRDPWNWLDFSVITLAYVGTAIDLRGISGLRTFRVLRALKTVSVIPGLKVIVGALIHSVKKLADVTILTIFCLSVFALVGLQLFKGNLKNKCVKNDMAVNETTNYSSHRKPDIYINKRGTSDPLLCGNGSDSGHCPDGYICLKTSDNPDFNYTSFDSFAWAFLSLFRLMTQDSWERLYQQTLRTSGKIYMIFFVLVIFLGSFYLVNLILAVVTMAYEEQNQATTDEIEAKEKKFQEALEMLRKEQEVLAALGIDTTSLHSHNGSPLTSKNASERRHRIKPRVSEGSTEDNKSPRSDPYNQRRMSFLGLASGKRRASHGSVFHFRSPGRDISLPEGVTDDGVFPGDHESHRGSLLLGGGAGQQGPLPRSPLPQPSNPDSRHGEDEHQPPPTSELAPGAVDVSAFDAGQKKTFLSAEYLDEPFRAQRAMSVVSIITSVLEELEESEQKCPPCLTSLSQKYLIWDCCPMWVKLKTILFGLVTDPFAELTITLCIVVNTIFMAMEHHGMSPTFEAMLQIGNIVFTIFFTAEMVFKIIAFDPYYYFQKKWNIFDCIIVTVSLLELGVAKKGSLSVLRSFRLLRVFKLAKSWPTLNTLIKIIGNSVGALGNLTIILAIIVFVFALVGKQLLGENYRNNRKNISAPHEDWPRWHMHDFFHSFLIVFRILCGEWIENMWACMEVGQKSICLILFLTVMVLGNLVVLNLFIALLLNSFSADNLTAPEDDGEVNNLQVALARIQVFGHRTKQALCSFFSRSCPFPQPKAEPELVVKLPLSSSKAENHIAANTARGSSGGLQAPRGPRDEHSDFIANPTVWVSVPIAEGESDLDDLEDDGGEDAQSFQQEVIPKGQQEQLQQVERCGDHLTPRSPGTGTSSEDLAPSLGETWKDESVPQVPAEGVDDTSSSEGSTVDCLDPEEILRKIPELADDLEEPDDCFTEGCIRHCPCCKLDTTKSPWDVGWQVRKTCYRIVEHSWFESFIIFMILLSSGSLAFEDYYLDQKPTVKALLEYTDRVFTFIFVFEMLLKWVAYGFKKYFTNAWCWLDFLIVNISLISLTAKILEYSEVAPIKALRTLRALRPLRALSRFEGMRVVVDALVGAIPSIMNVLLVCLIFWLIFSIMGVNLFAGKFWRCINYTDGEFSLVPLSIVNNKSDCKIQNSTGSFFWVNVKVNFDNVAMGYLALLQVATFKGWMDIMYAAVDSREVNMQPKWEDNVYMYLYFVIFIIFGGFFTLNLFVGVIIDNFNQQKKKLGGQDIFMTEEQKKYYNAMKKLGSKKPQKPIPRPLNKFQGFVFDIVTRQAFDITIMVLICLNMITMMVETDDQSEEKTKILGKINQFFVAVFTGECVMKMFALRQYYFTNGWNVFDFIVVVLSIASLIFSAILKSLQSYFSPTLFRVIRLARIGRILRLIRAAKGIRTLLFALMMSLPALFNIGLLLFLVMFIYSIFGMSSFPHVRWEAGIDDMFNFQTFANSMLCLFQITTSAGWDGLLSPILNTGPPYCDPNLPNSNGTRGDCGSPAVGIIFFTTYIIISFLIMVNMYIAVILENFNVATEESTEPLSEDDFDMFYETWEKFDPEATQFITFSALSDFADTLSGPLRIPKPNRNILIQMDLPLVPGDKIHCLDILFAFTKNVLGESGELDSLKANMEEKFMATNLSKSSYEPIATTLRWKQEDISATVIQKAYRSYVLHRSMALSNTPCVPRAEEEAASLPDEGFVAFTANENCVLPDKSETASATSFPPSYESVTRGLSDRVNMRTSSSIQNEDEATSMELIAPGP

Row | Compound | IC50 [1] [nM] | IC50 [2] [nM]
1 | CS(=O)(=O)c1cccc(NC(=O)c2cc(C(F)(F)F)cnc2OCC23CC(F)(C2)C3)c1 [Compound 1629] | 40 to 200 | 40 to 200
2 | COc1c(Oc2ncc(C(F)(F)F)cc2C(=O)Nc2cccc(S(C)(=N)=O)c2)ccc(F)c1F (centres unmarked) [Compound 1630] | ≤ 20 | ≤ 20
3 | CS(=N)(=O)c1cccc(NC(=O)c2cc(C(F)(F)F)cnc2OCC23CC(C#N)(C2)C3)c1 (centres unmarked) [Compound 1631] | 200 to 500 | 200 to 500
4 | CS(=N)(=O)c1cccc(NC(=O)c2cc(C(F)(F)F)cnc2OC2CC3(C2)CC(F)(F)C3)c1 (centres unmarked) [Compound 1632] | 200 to 500 | 200 to 500
5 | CS(=N)(=O)c1cccc(NC(=O)c2cc(C(F)(F)F)cnc2OC23CC(C(F)(F)F)(C2)C3)c1 (centres unmarked) [Compound 1633] | 200 to 500 | 40 to 200
6 | NC(=O)c1cccc(NC(=O)c2cc(C(F)(F)F)cnc2OC23CC(C(F)(F)F)(C2)C3)c1 [Compound 1634] | 200 to 500 | 200 to 500
7 | NC(=O)c1cccc(NC(=O)c2cc(C(F)(F)F)cnc2Oc2ccc(OC(F)F)cc2)c1 [Compound 1635] | 40 to 200 | 40 to 200
8 | CS(=N)(=O)c1cccc(NC(=O)c2cc(C(F)(F)F)cnc2Oc2cccnc2OC(F)(F)F)c1 (centres unmarked) [Compound 1636] | ≤ 20 | ≤ 20
9 | COc1cc(F)c(Oc2ncc(C(F)(F)F)cc2C(=O)Nc2cccc(S(C)(=N)=O)c2)cc1F (centres unmarked) [Compound 1637] | 200 to 500 | 200 to 500
10 | COc1cc(F)c(Oc2ncc(C(F)(F)F)cc2C(=O)Nc2cccc(C(N)=O)c2)cc1F [Compound 1638] | 200 to 500 | 200 to 500
11 | COc1nc(C)c(Oc2ncc(C(F)(F)F)cc2C(=O)Nc2cccc(S(C)(=N)=O)c2)cc1F (centres unmarked) [Compound 1639] | 200 to 500 | 200 to 500
12 | COc1ccc(Oc2ncc(C(F)(F)F)cc2C(=O)Nc2cccc(S(C)(=N)=O)c2)cc1F (centres unmarked) [Compound 1640] | 200 to 500 | 200 to 500
13 | CS(=N)(=O)c1cccc(NC(=O)c2cc(C(F)(F)F)cnc2Oc2ccc(OC(F)F)c(F)c2)c1 (centres unmarked) [Compound 1644] | ≤ 20 | ≤ 20
14 | COc1cc(Oc2ncc(C(F)(F)F)cc2C(=O)Nc2cccc(S(C)(=N)=O)c2)ccc1C#N (centres unmarked) [Compound 1645] | 200 to 500 | 200 to 500
15 | CS(=N)(=O)c1cccc(NC(=O)c2cc(C(F)(F)F)cnc2Oc2ccc(OC(F)F)nc2)c1 (centres unmarked) [Compound 1646] | 40 to 200 | 40 to 200
16 | CC(C)Oc1ccc(Oc2ncc(C(F)(F)F)cc2C(=O)Nc2cccc(S(C)(=N)=O)c2)cc1F (centres unmarked) [Compound 1647] | ≤ 20 | ≤ 20
17 | CS(=N)(=O)c1cccc(NC(=O)c2cc(C(F)(F)F)cnc2Oc2ccc(Br)cc2C2CC2)c1 (centres unmarked) [Compound 1648] | ≤ 20 | ≤ 20
18 | CC(C)Oc1ccc(Oc2ncc(C(F)(F)F)cc2C(=O)Nc2ccc(-c3ncc[nH]3)cc2)c(F)c1F [Compound 1649] | 200 to 500 | 200 to 500
19 | Cc1cc(F)ccc1Oc1nccc(C(F)(F)F)c1C(=O)Nc1cccc(S(C)(=N)=O)c1 (centres unmarked) [Compound 1650] | 40 to 200 | 40 to 200
20 | COc1c(Oc2nccc(C(F)(F)F)c2C(=O)Nc2cccc(S(C)(=N)=O)c2)ccc(F)c1F (centres unmarked) [Compound 1651] | ≤ 20 | ≤ 20
21 | COc1c(Oc2nccc(C(F)(F)F)c2C(=O)Nc2cccc(C(N)=O)c2)ccc(F)c1F [Compound 1652] | 20 to 40 | 20 to 40
22 | COc1cc(C#N)ccc1Oc1nccc(C(F)(F)F)c1C(=O)Nc1cccc(S(C)(=N)=O)c1 (centres unmarked) [Compound 1653] | 40 to 200 | 40 to 200
23 | COc1nc(C#N)ccc1Oc1ncc(C(F)(F)F)cc1C(=O)Nc1cccc([S@](C)(=N)=O)c1 [Compound 1655] | ≤ 20 | ≤ 20
24 | CSc1cccc(Oc2ncc(C(F)(F)F)cc2C(=O)Nc2cccc(S(C)(=O)=O)c2)c1 [Compound 1656] | 40 to 200 | 40 to 200
25 | CS(=O)(=O)c1cccc(NC(=O)c2cc(C(F)(F)F)cnc2Oc2cccc(OC(F)(F)F)c2)c1 [Compound 1657] | 200 to 500 | 200 to 500
